In patent US20050074867A1, “Preservation of competent cells at ambient temperatures” (priority 2001, published 2005):

Test system: logarithmic E. coli cells
Assay: Preservation survival and stability of logarithmic E. coli cells loaded in vitro before foam drying
Type: cell-based
Procedure: (3) Loading of fresh electrocompetent E. coli cells before preservation: When applicable, one aliquot of the cell concentrate (3.2 ml of cells in PBS buffer, approx. 2×10^10 cfu/ml) was mixed with 0.8 ml of 50% methyl-glucoside (MAG; 10% final concentration) and incubated at 37° C. for 30 minutes (in vitro loading). A second aliquot (3.2 ml of the cell concentrate) was mixed with 0.8 ml of PBS buffer and incubated on ice for 30 minutes (control, unloaded cells). Similar to loading with MAG, the cells were loaded with 2-deoxyglucose (2-DOG) as described in Example 5 infra.
(4) Preservation of electrocompetent E. coli cells: The cells (resuspended in PBS buffer or on 20% sucrose) were mixed with an equal mass of preservation solution consisting of 45% 2:1 sucrose:raffinose or 45% 4:1 sucrose:MAG on ice. Altematively, the cell pellets were resuspended directly in 22.5% sucrose:raffinose or 22.5% 4:1 sucrose:MAG. The 0.5 g aliquots were distributed in 5 ml glass serum vials or 0.2 g aliquots were distributed in 1.2 ml glass serum vials. To determine the survival in preservation solution before drying, cell-containing mixtures were diluted in PBS buffer containing 20% sucrose and appropriate dilutions were spread plated in duplicate on L-agar plates.
The samples were dried by foam formation. The mixtures were foamed at 0° C. and kept at that temperature until foam formation occurred. After foam was well formed, shelf temperature was increased to 20° C. and drying continued overnight (at least 12 hours).
(5) Assaying the preserved E. coli cells: Dried samples were rehydrated at room temperature. 1 ml of rehydration solution (20% sucrose) was added to the 5 ml vials and 0.2 ml was added to the 1.2 ml vials. For the determination of preservation survival, rehydrated cells were diluted and spread plated in duplicate on L-agar plates. Plates were incubated at 37° C. overnight and colonies were counted the following day.
Bacterial culture was grown until OD550=0.5 was reached (mid-log growth stage). The cell concentrates were prepared as described previously. Control cells, which were not loaded, were incubated on ice for 30 minutes. Cell concentrates were incubated with different amounts (0.15-1%, 5%, 10% and 15%) of glucose and glucose nonmetabolizable analogs at 37° C. for 30 minutes (loading). These mixtures were preserved as described previously.
Accumulation of MAG in the cells prior to drying enhances preservation of logarithmic E. coli cells. Two cell concentrates (harvested at mid-log growth stage) were prepared as described previously. To induce uptake of MAG, 0.5% glucose was added to the growth medium (“induced culture”). Both concentrates were incubated with 10% MAG at 37° C. for 30 minutes (loading). When loading was completed, one concentrate was diluted 100-fold in PBS buffer and incubated at 37° C. for an additional 30 minutes to induce expulsion of the pre-accumulated MAG. Both concentrates were preserved as described previously.
Mid-logarithmic culture was prepared as described previously. 0.5% glucose was added to the growth medium (“induced cells”). The culture was concentrated 10-fold and the concentrates were incubated for 30 minutes with 10% MAG at different temperatures (0, 20, 40, and 60° C.). The mixtures were preserved as described previously.
Effect of incubation time on accumulation of MAG in logarithmic E. coli cells. Cell concentrates were prepared as described previously (0.5% glucose was added to the growth medium) and incubated with 10% MAG at 37° C. for 0, 2.5, 5, 15, 30, and 60 minutes. The mixtures were preserved as described previously.
Effect of growth stage on accumulation of MAG in E. coli cells. E. coli cultures were grown in L-broth with 0.5% glucose as described previously and harvested at OD550=0.1 (early-log), 0.5 (mid-log), 1.0 (late-log) and 2.0 (stationary cells). The cells in each culture were concentrated and split in two aliquots. […]

O=CC[C@@H](O)[C@H](O)[C@H](O)CO [Sample 2-DOG, 2-deoxyglucose]
survived drying (mid-logarithmic cells loaded with 0.1-1% at 37° C. for 30 minutes): 9-12% | survived drying (mid-logarithmic cells loaded with 5% at 37° C. for 30 minutes): 20% | survived drying (mid-logarithmic cells loaded with 10% at 37° C. for 30 minutes): 16% | survived drying (mid-logarithmic cells loaded with 15% at 37° C. for 30 minutes): 20%
